PubChem BioAssay (NCI)
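Dose response: 5 concentrations. Exposure: 48 h. Format: 96-well plates. Endpoint: linear interpolation; highest concentration if not reached. TGI marks complete inhibition of growth.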

What was measured:
Assay in all cases: NCI anticancer screen, dose series, 48 h
[1] = test system: 786-0 renal
[2] = test system: A498 renal
[3] = test system: A549 NSCLC
[4] = test system: ACHN renal
[5] = test system: BT-549 breast
[6] = test system: CAKI-1 renal
[7] = test system: COLO 205 colon
[8] = test system: DU-145 prostate
[9] = test system: EKVX NSCLC
[10] = test system: HCC-2998 colon
[11] = test system: HCT-116 colon
[12] = test system: HCT-15 colon
[13] = test system: HL-60(TB) leukemia
[14] = test system: HOP-62 NSCLC
[15] = test system: HOP-92 NSCLC
[16] = test system: HS 578T breast
[17] = test system: HT29 colon
[18] = test system: IGROV1 ovarian
[19] = test system: KM12 colon
[20] = test system: LOX IMVI melanoma
[21] = test system: M14 melanoma
[22] = test system: MALME-3M melanoma
[23] = test system: MCF7 breast
[24] = test system: MDA-MB-231 breast
[25] = test system: MDA-MB-435
[26] = test system: MDA-N
[27] = test system: MOLT-4 leukemia
[28] = test system: NCI-H226 lung
[29] = test system: NCI-H23 lung
[30] = test system: NCI-H460 lung
[31] = test system: NCI-H522 lung
[32] = test system: NCI/ADR-RES ovarian
[33] = test system: OVCAR-3 ovarian
[34] = test system: OVCAR-4 ovarian
[35] = test system: OVCAR-5 ovarian
[36] = test system: OVCAR-8 ovarian
[37] = test system: PC-3 prostate
[38] = test system: RPMI-8226 leukemia
[39] = test system: RXF 393 renal
[40] = test system: SF-268 CNS
[41] = test system: SF-295 CNS
[42] = test system: SK-MEL-2 melanoma
[43] = test system: SK-MEL-28 melanoma
[44] = test system: SK-MEL-5 melanoma
[45] = test system: SK-OV-3 ovarian
[46] = test system: SN12C renal
[47] = test system: SNB-19 CNS
[48] = test system: SNB-75 CNS
[49] = test system: SW-620 colon
[50] = test system: T-47D breast
[51] = test system: TK-10 renal
[52] = test system: U251 CNS
[53] = test system: UACC-257 melanoma
[54] = test system: UACC-62 melanoma
[55] = test system: UO-31 renal
[56] = test system: CCRF-CEM leukemia
[57] = test system: SF-539 CNS
[58] = test system: SR leukemia
[59] = test system: K-562 leukemia

SMILES: COC(=O)c1ccc(NC(=O)O/N=C(\Cl)C(C)C)cc1
- TGI [1]: 4.35 µM
- TGI [2]: 37.6 µM
- TGI [3]: 43.2 µM
- TGI [4]: 3.16 µM
- TGI [5]: 8.94 µM
- TGI [6]: 3.08 µM
- TGI [7]: 3.72 µM
- TGI [8]: 35.1 µM
- TGI [9]: 10.9 µM
- TGI [10]: 28.1 µM
- TGI [11]: 17.2 µM
- TGI [12]: 3.49 µM
- TGI [13]: 3.66 µM
- TGI [14]: 32.9 µM
- TGI [15]: 3.57 µM
- TGI [16]: > 66.7 µM
- TGI [17]: 29.4 µM
- TGI [18]: 27.6 µM
- TGI [19]: 30.2 µM
- TGI [20]: 4.02 µM
- TGI [21]: 12 µM
- TGI [22]: 3.48 µM
- TGI [23]: 19.1 µM
- TGI [24]: 15.6 µM
- TGI [25]: 25.5 µM
- TGI [26]: 22.8 µM
- TGI [27]: 6 µM
- TGI [28]: > 53.6 µM
- TGI [29]: 39.3 µM
- TGI [30]: 41.2 µM
- TGI [31]: 1.74 µM
- TGI [32]: 16.7 µM
- TGI [33]: 4.17 µM
- TGI [34]: 32 µM
- TGI [35]: 32.8 µM
- TGI [36]: 32.5 µM
- TGI [37]: 31.1 µM
- TGI [38]: 4.47 µM
- TGI [39]: 19.6 µM
- TGI [40]: > 78.1 µM
- TGI [41]: 33.3 µM
- TGI [42]: 31.5 µM
- TGI [43]: 10.1 µM
- TGI [44]: 16.1 µM
- TGI [45]: 31.7 µM
- TGI [46]: 13.9 µM
- TGI [47]: 31.8 µM
- TGI [48]: 26.3 µM
- TGI [49]: 3.77 µM
- TGI [50]: 5.02 µM
- TGI [51]: 10.3 µM
- TGI [52]: 30.9 µM
- TGI [53]: 28.6 µM
- TGI [54]: 27 µM
- TGI [55]: 28.7 µM

SMILES: Cc1occc1C(=S)Nc1ccc(Cl)c(C(=O)OC(C(C)C)C(C)C)c1
- TGI [1]: 30.9 µM
- TGI [2]: 27.8 µM
- TGI [3]: 31.8 µM
- TGI [4]: 24.9 µM
- TGI [5]: 34.6 µM
- TGI [6]: 35.4 µM
- TGI [56]: 33 µM
- TGI [7]: 34.4 µM
- TGI [8]: 32 µM
- TGI [9]: 27.3 µM
- TGI [10]: 21.9 µM
- TGI [11]: 24.5 µM
- TGI [12]: 33.7 µM
- TGI [13]: 29.8 µM
- TGI [14]: 42.3 µM
- TGI [15]: 22.6 µM
- TGI [16]: 48.5 µM
- TGI [17]: 33.5 µM
- TGI [18]: 31.5 µM
- TGI [19]: 29.9 µM
- TGI [20]: 26.3 µM
- TGI [21]: 35.3 µM
- TGI [22]: 26 µM
- TGI [23]: 34 µM
- TGI [24]: 27.2 µM
- TGI [25]: 65.8 µM
- TGI [26]: 29 µM
- TGI [27]: 23.1 µM
- TGI [28]: 32.2 µM
- TGI [29]: 23 µM
- TGI [30]: 31.6 µM
- TGI [31]: 25.9 µM
- TGI [32]: 26.3 µM
- TGI [33]: 28.3 µM
- TGI [34]: 41.9 µM
- TGI [35]: 57.2 µM
- TGI [36]: 26.5 µM
- TGI [37]: 25.4 µM
- TGI [38]: 29.6 µM
- TGI [39]: 33.7 µM
- TGI [40]: 45.1 µM
- TGI [41]: 18.5 µM
- TGI [57]: 35 µM
- TGI [42]: 38.4 µM
- TGI [43]: 29.8 µM
- TGI [44]: 32 µM
- TGI [45]: 53.2 µM
- TGI [46]: 30.9 µM
- TGI [47]: 58.4 µM
- TGI [58]: 28 µM
- TGI [49]: 46.2 µM
- TGI [50]: 18.1 µM
- TGI [51]: 32.4 µM
- TGI [52]: 34.1 µM
- TGI [53]: 19.2 µM
- TGI [54]: 25.7 µM
- TGI [55]: 17.5 µM

SMILES: CCN(CC)CCC(=O)c1ccc(C)cc1
- TGI [1]: 34.3 µM
- TGI [2]: 67.2 µM
- TGI [3]: > 100 µM
- TGI [4]: 41 µM
- TGI [5]: 37.6 µM
- TGI [56]: 31.2 µM
- TGI [7]: 63.1 µM
- TGI [8]: > 100 µM
- TGI [9]: 86.8 µM
- TGI [10]: > 100 µM
- TGI [11]: 36.8 µM
- TGI [12]: 33.6 µM
- TGI [13]: > 100 µM
- TGI [14]: > 100 µM
- TGI [15]: 36 µM
- TGI [16]: > 100 µM
- TGI [17]: 49.6 µM
- TGI [18]: 37.6 µM
- TGI [59]: 52.3 µM
- TGI [20]: > 100 µM
- TGI [21]: 35.8 µM
- TGI [22]: 42.4 µM
- TGI [23]: 17.4 µM
- TGI [24]: 29 µM
- TGI [25]: 33.6 µM
- TGI [26]: 51.6 µM
- TGI [27]: 52.2 µM
- TGI [28]: 63.6 µM
- TGI [29]: 48.1 µM
- TGI [30]: > 100 µM
- TGI [31]: 32.7 µM
- TGI [32]: 65.7 µM
- TGI [33]: 33.1 µM
- TGI [34]: 50.1 µM
- TGI [35]: 31.4 µM
- TGI [36]: > 100 µM
- TGI [37]: > 100 µM
- TGI [39]: 31.1 µM
- TGI [40]: > 100 µM
- TGI [41]: > 100 µM
- TGI [57]: > 100 µM
- TGI [43]: 29.9 µM
- TGI [44]: 25.8 µM
- TGI [45]: > 100 µM
- TGI [46]: > 100 µM
- TGI [47]: > 100 µM
- TGI [48]: > 100 µM
- TGI [58]: 82.6 µM
- TGI [49]: 36.9 µM
- TGI [50]: 39.8 µM
- TGI [52]: > 100 µM
- TGI [53]: 38.9 µM
- TGI [54]: > 100 µM
- TGI [55]: 42 µM
